Data: patent US20220280625A1 (Northwestern University, priority 2019, published 2022)
Blank lines part the entries; values can stand above or below the compound they belong to. Bridge positions count the residues as written; N and C are the ends. Square brackets hold non-standard residues; d marks the D form. Ends that are not written are not given here. Peptide text beside a SMILES is read from it. * marks the point of attachment. X1 = O=C1[C@@H]2[C@H](C(=O)N1CCCCCC(=O)*)[C@H]1C=C[C@@H]2C1; d(aIle) = CC[C@H](C)[C@@H](N)C(=O)O

Assays:
elastase [1] = assay: in vitro; settings: isolated enzyme elastase, pH 7.2
Description: Enzymatic cleavage. Elastase was chosen as a model protease since it can cleave the three glycine fragment for easy recognition of cleavage product which is also similar to the natural initial cleavage product in serum. Remaining peptide percentage was measured by the ratio between the area under the curve at each time point and the area under the curve of the first time point.
Twenty microliters (20 μL) of elastase (1 mM), 20 μL of monomer (FIG. 9A) or polymer (FIG. 9B) (2 mM), 20 μL Tris buffer (250 mM Tris pH 7.2, 1500 mM NaCl, 500 mM CaCl2)) and 140 μL of water were added to a HPLC vial and loaded in the autosampler carousel and a sample immediately taken for injection at 1 min. Subsequently, the reaction was monitored via RP-HPLC (10-80% buffer B) with an injection every 50 minutes following the initial injection.
The ratio of the AUC at each time point relative to the first time point is plotted.

[2] = Systolic blood pressure by tail-cuff system in mice; type: in vivo, C57BL/6 mice; settings: intraperitoneal injection, measured for 20 minutes
Description: Healthy C57BL/6 mice were injected with either terlipressin peptide or terlipressin PLP and the systolic blood pressure was measured over time by employing a tail-cuff system (CODA™). The mice were anesthetized with ketamine and placed in restraints over a heated pad. Following 5 minutes of background measurements, the drugs were administrated by intraperitoneal injection (IP) and the measurements continued for another 20 minutes (limited by the effect of ketamine). The delta BP was measured and plotted as a function of time.

[3] = human, in vivo; cited from earlier work
thermolysin [4] = target: T1, thermolysin (Bacillus thermoproteolyticus, UniProt P00800); assay: Enzyme degradation kinetics of ABT898 peptide and PLP with thermolysin (HPLC); type: in vitro ADME; settings: 200 μM stock, thermolysin 0.1 μM, over 450 min; PLP = AR PLP (FIG. 26A)
T1 sequence (P00800 233-548): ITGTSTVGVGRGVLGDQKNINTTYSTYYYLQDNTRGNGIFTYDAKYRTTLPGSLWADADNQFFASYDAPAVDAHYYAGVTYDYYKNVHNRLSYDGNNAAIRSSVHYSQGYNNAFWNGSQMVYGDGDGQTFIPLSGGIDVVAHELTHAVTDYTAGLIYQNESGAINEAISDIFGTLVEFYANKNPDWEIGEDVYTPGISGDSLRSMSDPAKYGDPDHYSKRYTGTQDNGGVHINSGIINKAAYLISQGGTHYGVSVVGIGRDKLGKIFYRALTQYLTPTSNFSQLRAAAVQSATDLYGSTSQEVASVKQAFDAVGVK
Description: FIGS. 26A-26B. Enzyme degradation kinetics and BLI assay. FIG. 26A. Percent enzymatic cleavage of peptide and PLP (AR PLP) upon the treatment of thermolysin (peptide:enzyme=2000:1) was monitored by HPLC over 450 min. FIG. 26B. Bio-layer interferometry data measuring the binding constant between AR PLP and CD36 receptor.
Enzyme Degradation Kinetics. An important feature of the PLP platform is that the globular structure of peptides arranged on a polymeric scaffold impart high proteolytic resistance. We performed an enzyme resistance assay to confirm that the PLP is resistant to proteolysis as compared to the peptide alone. Both peptide and PLP stock solutions (200 μM) were treated with thermolysin enzyme (0.1 μM) and their degradation profiles were monitored using high performance liquid chromatography (HPLC). […] We calculated the area under the peak at each time point to construct the percent cleaved and plotted it against time for both peptide and PLP (FIG. 26A).

choroidal angiogenesis = assay: Ex vivo choroidal sprouting assay; type: cell-based; settings: FIGS. 24B-24D
Description: Ex vivo choroidal sprouting assay. As a first step towards determining the anti-angiogenic properties of the ABT898 PLPs, we performed an ex vivo choroidal sprouting assay. Briefly, eyes are enucleated, dissection is performed to remove the cornea, iris, lens, retina, and vitreous. The peripheral RPE-choroid-sclera complex is plated in Matrigel, angiogenesis develops spontaneously over Day 4-Day 7, and can be quantitated using reverse phase brightfield microscopy (FIG. 24A). ABT898 peptide had no effect upon choroidal angiogenesis (FIGS. 24B and 24C). Alternatively, ABT898 Ester and Amide PLPs, which are not hydrolysable, reduced angiogenesis by 24% and 81%, respectively. Cell penetrating peptides that are rich in arginine residues, aid the cellular penetration of cargo via endocytosis. In order to enhance the cellular penetration capacity and the solubility of the PLPs we modified the C-terminus with arginine moieties. […] Without wishing to be bound by any particular theory, we believe this is because the peptide alone is degraded in the Matrigel milieu. […] In addition, we performed a dose dependent analysis of growth area at Day 4 for treatment with ABT898 amide RR PLP, and the results are shown in FIG. 25.
Ex Vivo Choroidal Sprouting Assay: Anti-VEGF PLPs. […]

elastase [5] = assay: 20 μL of elastase (1 mM), 20 μL Tris buffer (250 mM Tris pH 7.2, 1500 mM NaCl, 500 mM CaCl2) and 140 μL of water; settings: up to 550 min
thermolysin [6] = target: T1, thermolysin
Description: To discern the relationship between backbone structure and peptide stability against proteolysis, enzyme kinetics of each peptide brush polymer with different backbones were measured in PBS buffer with added protease (i.e., thermolysin).
For enzyme-triggered cleavage experiments, the molar ratio of thermolysin to peptide was set to 1:200. Moreover, the temperature was set to 37° C. […] Then thermolysin (0.1 mg, 3.0 nmol, 1 equiv.) was added into the polymer solution which was stirred in a preheated oil bath at 37° C.

remaining at 550 min, 0.2 mM (elastase [1]): ~50%
Compound: NCCCC[C@H](NC(=O)[C@@H]1CCCN1C(=O)[C@@H]1CSSC[C@H](NC(=O)CNC(=O)CNC(=O)CNC(=O)CCCCCN2C(=O)[C@@H]3[C@H](C2=O)[C@H]2C=C[C@@H]3C2)C(=O)N[C@@H](Cc2ccc(O)cc2)C(=O)N[C@@H](Cc2ccccc2)C(=O)N[C@@H](CCC(N)=O)C(=O)N[C@@H](CC(N)=O)C(=O)N1)C(=O)NCC(N)=O [terlipressin peptide monomer] (X1-GGGCYFQNCPKG-NH2; disulfide 4-9)

Compound: NCCCC[C@H](NC(=O)[C@@H]1CCCN1C(=O)[C@@H]1CSSC[C@H](NC(=O)CNC(=O)CNC(=O)CN)C(=O)N[C@@H](Cc2ccc(O)cc2)C(=O)N[C@@H](Cc2ccccc2)C(=O)N[C@@H](CCC(N)=O)C(=O)N[C@@H](CC(N)=O)C(=O)N1)C(=O)NCC(N)=O [terlipressin, Terlipressin] (H-GGGCYFQNCPKG-NH2; disulfide 4-9)
change in systolic blood pressure over time (delta BP) [2]: immediate and very large increase in blood pressure, which dropped rapidly in a manner of few minutes
distribution half-life [3]: 8 min
elimination half-life [3]: 6 min

Compound: ABT898 peptide: synthetic peptide GVi(allo)SQIRP which mimics the TSP1 type-1 repeat (GV[d(aIle)]SQIRP) [reference compound]
degradation by thermolysin (HPLC peak over time) (thermolysin [4]): rapid degradation
effect upon choroidal angiogenesis (choroidal angiogenesis): no effect

cleaved bond (elastase [5]): G-C
Compound: GGGCYFQNCPKG

Compound: poly(PepNorIm15): peptide brush polymer of GPLGLAGGWGERDGS norbornene dicarboxyimide monomer, DP 15 (also: peptide is a side chain of a norbornene dicarboxyimide brush polymer, DP 15)
proteolytic stability against thermolysin (thermolysin [6]): demonstrated resistance to proteolysis
